Experimental data from patent publication US12497386B2, “Estrogen receptor-modulating compounds” (RADIUS PHARMACEUTICALS, INC., priority 2018, dated 2025).
pIC50: −log10 of the molar value.

Columns and labels:
MCF-7 cells = assay: MCF-7 Proliferation Inhibition Assay; format: cell-based, human; settings: 10 pM dose of E2, 7 days incubation, CellTiterGlo viability
Description: Proliferation Assay in MCF-7 and T47D Cells
MCF-7 and T47D cells were stripped for 3 days in phenol red-free RPMI1640 media containing 10% charcoal-stripped fetal bovine serum (CS-FBS) and 1% Penicillin/streptomycin (P/S). Cells (volume of 90 μl/well) were seeded in 96 well plates at a density of 2500 cells/well for MCF-7 cells and 1500 cells/well for T47D cells. On the following day, plates were treated with the test compounds (10× concentration in media, volume of 10 μl/well added) both in the absence and in the presence of two doses of E2 (10 pM and 1 nM). The cells were incubated with test compounds for 7 days. The viability of the cells was assessed using CellTiterGlo (Promega, Cat #G7573) according to the manufacturer's instructions. Growth inhibition curves and IC50 values were calculated using the GraphPadPrism 6.0 software. Data values shown in Table 1 were obtained using the 10 pM dose of E2.

[1] = tested on: E2-induced increase in uterine weight in immature rats; assay: Immature Rat Uterine Assay; format: in vivo, Sprague-Dawley rat; settings: oral dose of 3 mg/kg in combination with E2 (0.01 mg/kg), once daily for three consecutive days
Description: Immature Rat Uterine Assay
Sprague-Dawley rat pups were weaned at 19 days of age, randomized into groups (n=6), and administered vehicle (aqueous 20% HPBCD, 10% PEG400 in H2O), E2 (0.01 mg/kg), test compounds (0.1 mg/kg-3 mg/kg) in combination with E2 (0.01 mg/kg), either by subcutaneous injection or by oral gavage, once daily for three consecutive days. Twenty-four hours after the final dose, all animals were killed by carbon dioxide inhalation. Body weights and wet uterine weights were recorded for each animal. GraphPadPrism 6.0 software was used to analyze data.

Cc1ccccc1-c1c(F)c2c3cn[nH]c3ccc2n1Cc1ccc(CCNCCCF)cc1 [Compound D-102, 3-Fluoro-N-(4-((8-fluoro-7-(o-tolyl)pyrrolo[3,2-e]indazol-6(3H)-yl)methyl)phenethyl)propan-1-amine]
pIC50 (MCF-7 cells; Homo sapiens, MCF7, 168 h): > 9.00 | wet uterine weight [1]: suppressed wet uterine weight to baseline

COc1ccc(-c2c(C)c3cc(O)ccc3n2Cc2ccc(CCNCC(F)(F)F)cc2)cc1 [Compound D-12, 2-(4-Methoxyphenyl)-3-methyl-1-(4-(2-((2,2,2-trifluoroethyl)amino)ethyl)benzyl)-1H-indol-5-ol]
pIC50 (MCF-7 cells; Homo sapiens, MCF7, 168 h): < 8.00

CCNCCc1ccc([C@@H]2c3ccc(O)cc3CC[C@@H]2c2ccccc2C)cc1 [LA-21, (5R,6S)-5-(4-(2-(Ethylamino)ethyl)phenyl)-6-(o-tolyl)-5,6,7,8-tetrahydronaphthalen-2-ol]
pIC50 (MCF-7 cells; Homo sapiens, MCF7, 168 h): > 9.00

Cc1ccccc1-c1c(F)c2cc(O)ccc2n1Cc1ccc(CCNCCCF)cc1 [Compound D-69, 3-Fluoro-1-(4-(2-((3-fluoropropyl)amino)ethyl)benzyl)-2-(o-tolyl)-1H-indol-5-ol]
pIC50 (MCF-7 cells; Homo sapiens, MCF7, 168 h): > 9.00

CCCCNCCc1ccc(Cn2c(-c3ccccc3C)c(F)c3cc(O)ccc32)cc1 [Compound D-68, 1-(4-(2-(Butylamino)ethyl)benzyl)-3-fluoro-2-(o-tolyl)-1H-indol-5-01]
pIC50 (MCF-7 cells): > 9.00

CCNCCc1ccc(Cn2c(-c3ccccc3C)c(F)c3cc(O)ccc32)cc1 [Compound D-29, 1-(4-(2-(Ethylamino)ethyl)benzyl)-3-fluoro-2-(o-tolyl)-1H-indol-5-ol]
pIC50 (MCF-7 cells; Homo sapiens, MCF7, 168 h): > 9.00

CCCNCCc1ccc(Cn2c(-c3ccccc3-c3ccccc3)c(F)c3cc(O)ccc32)cc1 [Compound D-66, 2-([1,1′-Biphenyl]-2-yl)-3-fluoro-1-(4-(2-(propylamino)ethyl)benzyl)-1H-indol-5-ol]
pIC50 (MCF-7 cells; Homo sapiens, MCF7, 168 h): > 9.00

CCCNCCc1ccc(Cn2c(-c3ccccc3C)c(F)c3cc(O)ccc32)cc1 [Compound D-67, 3-Fluoro-1-(4-(2-(propylamino)ethyl)benzyl)-2-(o-tolyl)-1H-indol-5-01]
pIC50 (MCF-7 cells): > 9.00

COc1ccc(-c2c(F)c3cc(O)ccc3n2Cc2ccc(CCNCCCF)cc2)c(C)c1 [Compound D-104, 3-Fluoro-1-(4-(2-((3-fluoropropyl)amino)ethyl)benzyl)-2-(4-methoxy-2-methylphenyl)-1H-indol-5-ol]
pIC50 (MCF-7 cells; Homo sapiens, MCF7, 168 h): > 9.00

Oc1ccc2c(c1)CC[C@H](c1ccccc1)[C@@H]2c1ccc(CCNCC2CC2)cc1 [LA-19, (5R,6S)-5-(4-(2-((Cyclopropylmethyl)amino)ethyl)phenyl)-6-phenyl-5,6,7,8-tetrahydronaphthalen-2-ol]
pIC50 (MCF-7 cells; Homo sapiens, MCF7, 168 h): > 9.00

CCCN1CC(=Cc2ccc(Oc3c(-c4ccccc4C)sc4cc(O)ccc34)cc2)C1 [BT-17, 3-(4-((1-Propylazetidin-3-ylidene)methyl)phenoxy)-2-(o-tolyl)benzo[b]thiophen-6-ol]
pIC50 (MCF-7 cells; Homo sapiens, MCF7, 168 h): > 9.00
